Values quoted from earlier work, collected in PMC7357848 (Journal of Chemical Information and Modeling, 2020).

Test system: hERG
Details: IC50 with SP over IC50 with Protocol-O; ref 5 (Yao et al. 2005)

Substance: BeKm-1
- IC50 ratio: 10.3
